The results in this text go back to US20200216439A1, “HETERO-1,5,6,7-TETRAHYDRO-4H-INDOL-4-ONES” (BAYER PHARMA AKTIENGESELLSCHAFT, priority 2015, published 2020).

The target of the experiment is T1, catalytic domain of human Bub1 (amino acids 704-1085) (Homo sapiens, UniProt O43683).
T1 construct: catalytic domain of human Bub1 (amino acids 704-1085); His6 (N); made in house; host or cells: Hi5 insect cells
The experiment is described as follows: Bub1 kinase assay (TR-FRET). Type of experiment: biochemical. The note with it: TR-FRET; ATP 10 μM, peptide substrate 1 μM; 60 min at 22° C.; average or median if tested more than once; read-out: Inhibition of Bub1 kinase IC50. The text has this: Bub1-inhibitory activities of compounds described in the present invention were quantified using a time-resolved fluorescence energy transfer (TR-FRET) kinase assay which measures phosphorylation of the synthetic peptide Biotin-Ahx-VLLPKKSFAEPG (C-terminus in amide form), purchased from e.g. Biosyntan (Berlin, Germany) by the (recombinant) catalytic domain of human Bub1 (amino acids 704-1085), expressed in Hi5 insect cells with an N-terminal His6-tag and purified by affinity—(Ni-NTA) and size exclusion chromatography.
In a typical assay 11 different concentrations of each compound (0.1 nM, 0.33 nM, 1.1 nM, 3.8 nM, 13 nM, 44 nM, 0.15 μM, 0.51 μM, 1.7 μM, 5.9 μM and 20 μM) were tested in duplicate within the same microtiter plate. To this end, 100-fold concentrated compound solutions (in DMSO) were previously prepared by serial dilution (1:3.4) of 2 mM stocks in a clear low volume 384-well source microtiter plate (Greiner Bio-One, Frickenhausen, Germany), from which 50 nl of compounds were transferred into a black low volume test microtiter plate from the same supplier. Subsequently, 2 μL of Bub1 (the final concentration of Bub1 was adjusted depending on the activity of the enzyme lot in order to be within the linear dynamic range of the assay: typically ˜200 ng/mL were used) in aqueous assay buffer [50 mM Tris/HCl pH 7.5, 10 mM magnesium chloride (MgCl2), 200 mM potassium chloride (KCl), 1.0 mM dithiothreitol (DTT), 0.1 mM sodium ortho-vanadate, 1% (v/v) glycerol, 0.01% (w/v) bovine serum albumine (BSA), 0.005% (v/v) Trition X-100 (Sigma), 1× Complete EDTA-free protease inhibitor mixture (Roche)] were added to the compounds in the test plate and the mixture was incubated for 15 min at 22° C. to allow pre-equilibration of the putative enzyme-inhibitor complexes before the start of the kinase reaction, which was initiated by the addition of 3 μL 1.67-fold concentrated solution (in assay buffer) of adenosine-tri-phosphate (ATP, 10 μM final concentration) and peptide substrate (1 μM final concentration). The resulting mixture (5 μL final volume) was incubated at 22° C. during 60 min., and the reaction was stopped by the addition of 5 μL of an aqueous EDTA-solution (50 mM EDTA, in 100 mM HEPES pH 7.5 and 0.2% (w/v) bovine serum albumin) which also contained the TR-FRET detection reagents (0.2 μM streptavidin-XL665 [Cisbio Bioassays, Codolet, France] and 1 nM anti-phospho-Serine antibody [Merck Millipore, cat. #35-002] and 0.4 nM LANCE EU-W1024 labeled anti-mouse IgG antibody [Perkin-Elmer, product no. AD0077, alternatively a Terbium-cryptate-labeled anti-mouse IgG antibody from Cisbio Bioassays can be used]). The stopped reaction mixture was further incubated 1 h at 22° C. in order to allow the formation of complexes between peptides and detection reagents. Subsequently, the amount of product was evaluated by measurement of the resonance energy transfer from the Eu-chelate-antibody complex recognizing the Phosphoserine residue to the streptavidin-XL665 bound to the biotin moiety of the peptide. To this end, the fluorescence emissions at 620 nm and 665 nm after excitation at 330-350 nm were measured in a TR-FRET plate reader, e.g. a Rubystar or Pherastar (both from BMG Labtechnologies, Offenburg, Germany) or a Viewlux (Perkin-Elmer) and the ratio of the emissions (665 nm/[…]) was taken as indicator for the amount of phosphorylated substrate. The data were normalised using two sets of control wells for high—(=enzyme reaction without inhibitor=0%=Minimum inhibition) and low—(=all assay components without enzyme=100%=Maximum inhibition) Bub1 activity. IC50 values were calculated by fitting the normalized inhibition data to a 4-parameter logistic equation (Minimum, Maximum, IC50, Hill; Y=Max+(Min−Max)/(1+(X/IC50)Hill)).
A general note: Time-resolved FRET reads energy transfer from a long-lived donor to a nearby acceptor.

T1 sequence (O43683 704-1085): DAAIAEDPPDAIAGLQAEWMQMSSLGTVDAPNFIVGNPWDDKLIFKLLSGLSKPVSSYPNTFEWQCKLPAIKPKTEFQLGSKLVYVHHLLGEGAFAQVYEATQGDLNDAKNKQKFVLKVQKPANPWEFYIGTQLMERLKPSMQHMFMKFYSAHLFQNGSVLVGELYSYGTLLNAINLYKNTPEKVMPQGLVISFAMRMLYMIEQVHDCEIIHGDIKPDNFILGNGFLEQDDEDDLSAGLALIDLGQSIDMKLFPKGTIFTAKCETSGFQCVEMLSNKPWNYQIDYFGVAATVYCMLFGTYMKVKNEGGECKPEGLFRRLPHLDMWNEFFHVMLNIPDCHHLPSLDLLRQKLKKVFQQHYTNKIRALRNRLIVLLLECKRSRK

What is called IC50 is the concentration needed to halve the response being measured. Consider `CNC(=O)N1CC(=O)c2c([nH]c(-c3ccncc3OCC3CC3)c2Nc2ccccc2)C1` [Example 251, 2-[3-(Cyclopropylmethoxy)pyridin-4-yl]-N-methyl-4-oxo-3-(phenylamino)-1,4,5,7-tetrahydro-6H-pyrrolo[2,3-c]pyridine-6-carboxamide], for which the IC50 was found to be 12 nM.
Then `O=C(Nc1cc(-c2[nH]c3c(c2Nc2ccccc2)C(=O)CN(S(=O)(=O)c2cnc[nH]2)C3)ccn1)c1cncs1` [Example 161, N-{4-[3-Anilino-6-(1H-imidazol-5-ylsulfonyl)-4-oxo-4,5,6,7-tetrahydro-1H-pyrrolo[2,3-c]pyridin-2-yl]pyridin-2-yl}-1,3-thiazole-5-carboxamide], with 5 nM; and `CCN(CC)C(=O)N1CC(=O)c2c([nH]c(-c3ccnc(NC(C)=O)c3)c2Nc2ccccc2)C1` [Example 167, 2-(2-Acetamidopyridin-4-yl)-3-anilino-N,N-diethyl-4-oxo-1,4,5,7-tetrahydro-6H-pyrrolo[2,3-c]pyridine-6-carboxamide], with 6 nM.
Then `O=C(Nc1cc(-c2[nH]c3c(c2Nc2ccccc2)C(=O)CNC3)ccn1)c1cncs1` [Example 135], with 51 nM; and `COC(=O)N1CC(=O)c2c([nH]c(-c3ccnc(NC(=O)C4(F)CC4)c3)c2Nc2ccccc2)C1` [Example 147, Methyl 3-anilino-2-{2-([(1-fluorocyclopropyl)carbonyl]amino}pyridin-4-yl)-4-oxo-1,4,5,7-tetrahydro-6H-pyrrolo[2,3-c]pyridine-6-carboxylate], with 8 nM.
Consider `CC(C)(C)OC(=O)N1CC(=O)c2c([nH]c(-c3ccnc(NC(=O)[C@@H]4C[C@H]4F)c3)c2Nc2ccccc2)C1` (relative stereo) [Example 129, tert-Butyl 3-anilino-2-[2-({[(rel-1S,2R)-2-fluorocyclopropyl]carbonyl}amino)pyridin-4-yl]-4-oxo-1,4,5,7-tetrahydro-6H-pyrrolo[2,3-c]pyridine-6-carboxylate], for which the IC50 turned out to be 7 nM.
Then `CCNC(=O)N1CC(=O)c2c([nH]c(-c3ccnc(NC(=O)[C@@H]4C[C@@H]4F)c3)c2Nc2ccccc2)C1` [Example 208, N-Ethyl-2-[2-([(1S,2S)-2-fluorocyclopropyl]carbonylamino)pyridin-4-yl]-4-oxo-3-(phenylamino)-1,4,5,7-tetrahydro-6H-pyrrolo[2,3-c]pyridine-6-carboxamide], with 5 nM.
On to `CC(=O)Nc1cc(-c2[nH]c3c(c2Nc2ccccc2)C(=O)CN(C(=O)N2C[C@@H](C)O[C@@H](C)C2)C3)ccn1` [Example 255, N-4-[6-[(2R,6S)-2,6-Dimethylmorpholin-4-yl]carbonyl-4-oxo-3-(phenylamino)-4,5,6,7-tetrahydro-1H-pyrrolo[2,3-c]pyridin-2-yl]pyridin-2-ylacetamide], for which the IC50 came out at 375 nM.
Then `O=C1CNCc2[nH]c(-c3ccncc3F)c(Nc3ccccc3)c21` [Example 101, 2-(3-Fluoropyridin-4-yl)-3-(phenylamino)-1,5,6,7-tetrahydro-4H-pyrrolo[2,3-c]pyridin-4-one], with 43 nM; and `O=C1CN(S(=O)(=O)C2CCOCC2)Cc2[nH]c(-c3ccncc3)c(Nc3ccccc3)c21` [Example 70, 3-(phenylamino)-2-(pyridin-4-yl)-6-(tetrahydro-2H-pyran-4-ylsulfonyl)-1,5,6,7-tetrahydro-4H-pyrrolo[2,3-c]pyridin-4-one], with 7 nM.
Consider `CC(=O)Nc1cc(-c2[nH]c3c(c2Nc2ccccc2)C(=O)CN(C(=O)CCF)C3)ccn1` [Example 211, N-4-[6-(3-Fluoropropanoyl)-4-oxo-3-(phenylamino)-4,5,6,7-tetrahydro-1H-pyrrolo[2,3-c]pyridin-2-yl]pyridin-2-ylacetamide], for which the IC50 came out at 4 nM.
Then `CNC(=O)N1CC(=O)c2c([nH]c(-c3ccnc(NC(C)=O)c3)c2Nc2ccc(C)cc2)C1` [Example 320, 2-[2-(Acetylamino)pyridin-4-yl]-N-methyl-3-[(4-methylphenyl)amino]-4-oxo-1,4,5,7-tetrahydro-6H-pyrrolo[2,3-c]pyridine-6-carboxamide], with 178 nM; and `COC(=O)N1CC(=O)c2c([nH]c(-c3ccncc3OCC3CC3)c2Nc2ccccc2)C1` [Example 250, Methyl 2-[3-(cyclopropylmethoxy)pyridin-4-yl]-4-oxo-3-(phenylamino)-1,4,5,7-tetrahydro-6H-pyrrolo[2,3-c]pyridine-6-carboxylate], with 9 nM; and `CC(=O)Nc1cc(-c2[nH]c3c(c2Nc2ccccc2)C(=O)CN(S(=O)(=O)C2CC2)C3)ccn1` [Example 172], with 5 nM.
Then `Cc1nccc(-c2[nH]c3c(c2Nc2ccccc2)C(=O)CN(S(C)(=O)=O)C3)n1` [Example 29, 2-(2-Methylpyrimidin-4-yl)-6-(methylsulfonyl)-3-(phenylamino)-1,5,6,7-tetrahydro-4H-pyrrolo[2,3-c]pyridin-4-one], with 24 nM; and `CCN(CC)C(=O)N1CC(=O)c2c([nH]c(-c3ccnc(NC(=O)[C@@H]4C[C@@H]4F)c3)c2Nc2ccccc2)C1` [Example 217, N,N-Diethyl-2-[2-([(1S,2S)-2-fluorocyclopropyl]carbonylamino)pyridin-4-yl]-4-oxo-3-(phenylamino)-1,4,5,7-tetrahydro-6H-pyrrolo[2,3-c]pyridine-6-carboxamide], with 4 nM; and `O=C1CSCc2[nH]c(-c3ccncc3C(F)(F)F)c(Nc3ccccc3)c21` [Example 299, 3-(Phenylamino)-2-[3-(trifluoromethyl)pyridin-4-yl]-1,7-dihydrothiopyrano[3,4-b]pyrrol-4(5H)-one], with 7360 nM.
Then `O=C1CN(S(=O)(=O)c2ccccn2)Cc2[nH]c(-c3ccncc3)c(Nc3ccccc3)c21` [Example 74, 3-(phenylamino)-2-(pyridin-4-yl)-6-(pyridin-2-ylsulfonyl)-1,5,6,7-tetrahydro-4H-pyrrolo[2,3-c]pyridin-4-one], with 6 nM.
Regarding `CS(=O)(=O)N1CC(=O)c2c([nH]c(-c3ccncc3OCC3CC3)c2Nc2ccccc2)C1` [Example 235, 2-[3-(Cyclopropylmethoxy)pyridin-4-yl]-6-(methylsulfonyl)-3-(phenylamino)-1,5,6,7-tetrahydro-4H-pyrrolo[2,3-c]pyridin-4-one], the IC50 stood at 6 nM.
Turning to `COc1cc(C(=O)Nc2cc(-c3[nH]c4c(c3Nc3ccccc3)C(=O)CN(C(C)=O)C4)ccn2)ccc1F` [Example 258], the 50% inhibitory concentration (IC50) amounted to 10 nM.
Then `CN1CCN(C(=O)N2CC(=O)c3c([nH]c(-c4ccnc(NC(=O)[C@@H]5C[C@@H]5F)c4)c3Nc3ccccc3)C2)CC1` [Example 209, (1S,2S)-2-Fluoro-N-(4-6-[(4-methylpiperazin-1-yl)carbonyl]4-oxo-3-(phenylamino)-4,5,6,7-tetrahydro-1H-pyrrolo[2,3-c]pyridin-2-ylpyridin-2-yl)cyclopropanecarboxamide], with 7 nM.
Take `O=C1CN(Cc2ccccc2)Cc2[nH]c(-c3ccncc3)c(Nc3ccccc3)c21` [Example 1, 6-Benzyl-3-(phenylamino)-2-(pyridin-4-yl)-1,5,6,7-tetrahydro-4H-pyrrolo[2,3-c]pyridin-4-one]: the half-inhibitory concentration (IC50) was 67 nM.
Then `COc1cnccc1-c1[nH]c2c(c1Nc1ccccc1)C(=O)CN(S(C)(=O)=O)C2` [Example 107, 2-(3-Methoxypyridin-4-yl)-6(methylsulfonyl)-3-(phenylamino)-1,5,6,7-tetrahydro-4H-pyrrolo[2,3-c]pyridin-4-one], with 6 nM.
